{"source": "patent US10501413B2", "about": "“Inhibitors of the Notch transcriptional activation complex and methods for use of the same” (UNIVERSITY OF MIAMI, priority 2015, dated 2019)", "key": {"[1]": {"tested_on": "Notch-dependent somite formation", "assay": "Zebrafish somite formation", "assay_type": "in vivo, D. rerio", "conditions": "embryos soaked in 40 μM from 8 hPF, scored at 13 hPF", "description": "The in vivo effects of the inhibitors of the disclosure also were investigated using D. rerio. Notch signaling plays a role in somite formation in developing vertebrate embryos. Changes in levels of Notch signaling (either increased or decreased) during development of the zebrafish embryo result in disruption of the symmetric, bilaterally formed somites, which can be readily observed. Thus, disruption of somitogenesis in zebrafish represents a convenient dose-sensitive readout for Notch pathway stimulation or inhibition. When 100 pg of mNotch1 was injected in mRNA, defects in somitogenesis in 90% of the embryos resulted (compared to 0% disrupted embryos in the control group) (FIG. 5). […] Disruption of somite formation was not observed, however, when embryos were soaked in vehicle control (DMSO). […] On three separate days, multiple clutches of embryos from two or more breeding pairs of the AB wild type line were combined and incubated at 28.5° C. for 8 hours in E3 medium with 0.1% (w/v) methylene blue. The embryos were then placed into fresh E3 medium with 0.1% (w/v) methylene blue containing 50 μM DMSO, 40 μM compound 1-134-83, or nothing. […] At 13 hours post fertilization, samples were collected and scored for the presence of discrete somite boarders on a Zeiss Stemi 2000-CS scope. Data was analyzed using Fisher's exact test in R3.1.0. […]"}, "[2]": {"tested_on": "OE19 human esophageal adenocarcinoma xenograft", "assay": "OE19 cell line xenograft", "assay_type": "in vivo", "conditions": "nude mouse", "description": "The effect of the inhibitors of the disclosure on tumor formation in an animal was investigated using a xenograft model. When introduced into the flank of nude mouse 5×10^6 OE19 cells, a human esophageal adenocarcinoma cell line readily forms tumors over the course of 4 weeks. […] In contrast, treatment under the same regimen with a DMSO control had no effect on tumor growth. […] (FIG. 4) Six-week-old NOD-SCID gamma (“NSG”) mice were purchased from Jackson Laboratories and CD-1 Nude mice were purchased from Charles River Laboratories. For the cell line based xenografts assay, 5×10^6 OE19 cells in 200 μl serum-free culture medium were injected subcutaneously per mouse. The mice in the treatment group were injected with 15 mg/kg of Inhibitor No. 1-134-83 daily, and the mice in the control group were injected with the same volume of vehicle (DMSO). Subcutaneous tumor growth was measured once every 4 days using calipers along with body weight. The experiment was discontinued on day 28. PDX cancer models were established, as described in Zhang et al, Establishment of Patient-Derived Xenograft (PDX) Models of Human Breast Cancer, Current Protocols in Mouse Biology, 3:21-29 (2013), in NSG mice. […] Tumor growth was monitored every 4 days and tumor volume was measured by the formula: Volume=(S×S×L)/2, where S and L are the short and long dimensions. […]"}, "[3]": {"tested_on": "Notch target gene transcription", "assay": "RT-qPCR of Notch target genes in cancer cell lines", "assay_type": "cell-based, human", "protocol": "The effect of inhibitor treatment on Notch-target gene transcription also was investigated (FIGS. 2C and 2D). […] As proof of specificity, transcription of the housekeeping gene, HPRT, was unaltered in treated cells. To test the effects of Notch inhibition on proliferation, a colony formation assay was performed.\nTo extend the analysis of tumor cell growth inhibition, several commonly used cancer cell lines were selected to test for sensitivity to Inhibitor No. 1-134-83 (FIGS. 3A and 3B). […] In this analysis, sensitivity to DAPT is taken to indicate specific inhibition of Notch activity. […] Cells that are refractory to DAPT were equally resistant to Inhibitor No. 1-134-83.\nRT-PCR analysis was performed using TaqMan probes according to manufacturer's instructions. In particular, 80 ng of RNA equivalent was used per reaction. Gene expression was normalized to the TATA-binding protein (“TBP”) gene. As a control, hypoxanthine phosphoribosyltransferase 1 (“HPRT”) gene expression was also monitored."}, "[4]": {"tested_on": "esophageal adenocarcinoma PDX tumors", "assay": "Esophageal adenocarcinoma patient-derived xenograft (PDX)", "assay_type": "in vivo, mouse", "protocol": "The effect of the inhibitors of the disclosure on the growth of an established tumor also was investigated using two independent esophageal adenocarcinoma patient-derived xenograft (“PDX”) models. Tumors were established in NSG mice to the size of 250 mm^3 prior to the initiation of treatment. Mice were dosed daily via intraperitoneal (“IP”) injection with either Inhibitor No. 1-134-83 (15 mg/kg) or DAPT (20 mg/kg), and compared to DMSO vehicle control. […] Following 24 days of treatment, tumors were harvested and Notch-target gene transcription was evaluated. […] (FIG. 4) Six-week-old NOD-SCID gamma (“NSG”) mice were purchased from Jackson Laboratories and CD-1 Nude mice were purchased from Charles River Laboratories. For the cell line based xenografts assay, 5×10^6 OE19 cells in 200 μl serum-free culture medium were injected subcutaneously per mouse. The mice in the treatment group were injected with 15 mg/kg of Inhibitor No. 1-134-83 daily, and the mice in the control group were injected with the same volume of vehicle (DMSO). Subcutaneous tumor growth was measured once every 4 days using calipers along with body weight. The experiment was discontinued on day 28. PDX cancer models were established, as described in Zhang et al, Establishment of Patient-Derived Xenograft (PDX) Models of Human Breast Cancer, Current Protocols in Mouse Biology, 3:21-29 (2013), in NSG mice. Briefly, 10 mm^3 pieces of primary EAC29 PDX tumor were transplanted subcutaneously into the flanks of NSG mice using a 13G telescopic needle. When the tumors reached 200 mm^3, the mice were split into two uniform groups for treatment. Compound 1-134-83 (15 mg/kg) and vehicle were administered daily by inraperitoneal (“IP”) injection for 24 days. Tumor growth was monitored every 4 days and tumor volume was measured by the formula: Volume=(S×S×L)/2, where S and L are the short and long dimensions. The xenograft tumors were harvested, weighed and samples were subjected to histological examination and by qPCR."}}}
{"smiles": "CCOC(=O)COc1ccc(/C=C2\\SC(=S)NC2=O)cc1OC", "note": "[1-134-83]", "values": [{"measurement": "somite formation in embryos", "setting": "[1]", "value": "disrupted somites"}, {"measurement": "adverse effects on the animal (e.g. change in body weight)", "setting": "[2]; 15 mg/kg every day", "value": "no adverse effects"}, {"measurement": "tumor establishment", "setting": "[2]; 15 mg/kg every day from second day after transplantation", "value": "tumor establishment was blocked"}, {"measurement": "Notch target gene transcription", "setting": "[3]; OE33 and 786-0 cells, qPCR", "value": "dose-dependent decrease"}, {"measurement": "transcription of control gene HPRT", "setting": "[3]; OE33 and 786-0 cells, qPCR", "value": "unaltered"}, {"measurement": "Notch target gene transcription", "setting": "[3]; insensitive cancer cell lines of the panel, 48 hrs", "value": "do not show a statistically significant reduction"}, {"measurement": "Notch target gene transcription", "setting": "[3]; sensitive cancer cell lines of the panel, 48 hrs, DAPT 10, 1-134-83 15 and 25 μM", "value": "significantly reduced"}, {"measurement": "weight loss or visible signs of stress", "setting": "[4]; NSG mice, 15 mg/kg daily IP", "value": "without any significant weight loss or other visible signs of stress"}, {"measurement": "growth of established tumor", "setting": "[4]; NSG mice, two PDX models, daily IP, 1-134-83 15 mg/kg, DAPT 20 mg/kg", "value": "significantly stunted growth"}, {"measurement": "decrease in tumor volume by the experimental endpoint", "setting": "[4]; PDX tumor, versus vehicle", "value": "three-fold"}, {"measurement": "transcription of control gene (TBP2) in tumors", "setting": "[4]; treated PDX tumors, qPCR", "value": "unaffected"}, {"measurement": "level of Notch target genes (Hes1, HeyL, Notch3) in tumors", "setting": "[4]; tumors harvested after 24 days of treatment, qPCR", "value": "dramatically reduced"}]}
